Measurements as given in US9409880B2, “Modulators of TLR3/dsRNA complex and uses thereof” (The Regents of the University of Colorado, a body corporate, priority 2011, dated 2016).

Target: T1, TLR3 (Mus musculus, UniProt Q99MB1)
T1 construct: endogenous in cells; host or cells: RAW 264.7
T1 sequence (Q99MB1 26-905): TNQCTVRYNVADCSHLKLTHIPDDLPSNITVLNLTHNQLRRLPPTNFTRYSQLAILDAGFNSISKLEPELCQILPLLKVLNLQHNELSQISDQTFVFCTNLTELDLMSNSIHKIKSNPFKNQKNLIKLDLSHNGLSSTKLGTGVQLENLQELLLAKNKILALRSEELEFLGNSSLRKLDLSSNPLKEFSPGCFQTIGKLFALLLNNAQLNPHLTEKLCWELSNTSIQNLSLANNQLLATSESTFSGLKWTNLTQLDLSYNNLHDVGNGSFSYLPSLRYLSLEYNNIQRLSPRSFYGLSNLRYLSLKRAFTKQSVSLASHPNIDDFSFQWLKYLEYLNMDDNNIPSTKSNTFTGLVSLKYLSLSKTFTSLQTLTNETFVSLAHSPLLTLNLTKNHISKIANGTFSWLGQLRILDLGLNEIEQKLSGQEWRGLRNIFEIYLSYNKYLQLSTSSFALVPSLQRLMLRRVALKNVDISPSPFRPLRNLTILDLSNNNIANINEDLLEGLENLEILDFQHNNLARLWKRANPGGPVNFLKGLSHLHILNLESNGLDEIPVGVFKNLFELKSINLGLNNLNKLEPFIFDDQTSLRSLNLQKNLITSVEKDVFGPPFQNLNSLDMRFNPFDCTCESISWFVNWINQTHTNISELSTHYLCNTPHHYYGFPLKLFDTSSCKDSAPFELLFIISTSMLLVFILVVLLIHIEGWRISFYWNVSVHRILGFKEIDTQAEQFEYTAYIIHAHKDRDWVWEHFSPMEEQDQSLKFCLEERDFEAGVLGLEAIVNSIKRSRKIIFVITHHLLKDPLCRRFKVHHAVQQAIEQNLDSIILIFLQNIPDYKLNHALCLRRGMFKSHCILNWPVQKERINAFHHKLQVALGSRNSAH
Test: In vitro TLR3 inhibition assay: Poly IC-induced NO production in RAW 264.7 cells
Format: cell-based
Details: 6a vs 4a
Text: The initial hits (Figure A) were first evaluated using the present inventors' previously established high-throughput cell assay of TLR3 activation. See, for example, ACS Med. Chem. Lett. 2010, 1, 194 and Bioorg. Med. Chem. Lett., 2010, 20, 5411. Poly IC (Polyriboinosinic:polyribocytidylic acid) has been reported to selectively activate TLR3 signaling, resulting in the activation of nitric oxide synthase and the production nitric oxide (NO) in RAW 264.7 macrophage cells. The NO level was monitored as an indicator of Poly IC-induced TLR3 activation to evaluate the drug's inhibitory activity.
RAW 264.7 (Mouse leukaemic monocyte macrophage cell line) cells were grown in RPMI 1640 medium, supplemented with 10% FBS, penicillin (100 U/mL) and streptomycin ([…]). RAW cells were then planted in 96-well plates at 100,000 cells per well and grown for 24 h in the media descried previously at 37° C. in a 5% CO2 humidified incubator. After 24 h, non-adherent cells and media were removed and replaced with fresh RPMI 1640 medium (only RPMI). The adherent macrophages were treated with high molecular weight polyinosine-polycytidylic acid (Poly IC) (10 μg/mL) (Invivogen), an agonist of TLR3, and then added different concentrates of potential inhibitor. Two rows were only treated with Poly IC as an control. Plates were then incubated for an additional 24 h. Following incubation 100 μL of media was removed and added to flat black 96-well microfluor plates (Thermo Scientific, MA, USA). To each well, 10 μL of 2,3-diaminonaphthalene (0.05 mg/mL in 0.62 M aqueous HCl solution) was added and incubated for 15 min in the dark. The reaction was quenched by addition of 5 μL of a 3 M aqueous NaOH solution and the plate was read on Beckman Coulter DTX880 reader (Beckman Coulter, Calif., USA) with excitation at 365 nm and emission at 450 nm. The nitrite (a stable metabolite of nitric oxide) concentration was determined from a nitrite standard curve. The inhibition rate (%) of NO release was determined using the following formula: Inhibition (%)=[Poly IC(OD450)−Compounds (OD450)]/[Poly IC(OD450)−Control (OD450)]×100. The IC50 values for both inhibition and cytotoxicity were determined graphically using software Origin v7.5.

| Compound | decrease in potency |
| --- | --- |
| COc1ccc2c(Cl)c(C(=O)N[C@H](Cc3ccccc3)C(=O)O)sc2c1 [Compound 6a, (R)-2-(3-chloro-6-methoxybenzo[b]thiophene-2-carboxamido)-3-phenylpropanoic acid] | 10 fold |

Same assay, conditions: whole cell inhibitory activity; Poly IC-induced NO, RAW 264.7; average ± SD, at least three independent tests

| Compound | IC50 |
| --- | --- |
| O=C(N[C@@H](Cc1ccccc1)C(=O)O)c1cc2ccccc2s1 [Compound 1b, (S)-2-(benzo[b]thiophene-2-carboxamido)-3-phenylpropanoic acid] | > 155 µM |
| Cc1ccc2c(Cl)c(C(=O)N[C@H](Cc3ccccc3)C(=O)O)sc2c1 [Compound 2a, (R)-2-(3-chloro-6-methylbenzo[b]thiophene-2-carboxamido)-3-phenylpropanoic acid] | 11.8 ± 1.3 µM |
| Cc1ccc2c(Cl)c(C(=O)N[C@@H](Cc3ccccc3)C(=O)O)sc2c1 [Compound 2b, (S)-2-(3-chloro-6-methylbenzo[b]thiophene-2-carboxamido)-3-phenylpropanoic acid] | 31.7 ± 0.7 µM |
| O=C(N[C@H](Cc1ccccc1)C(=O)O)c1sc2cc(Cl)ccc2c1Cl [Compound 3a, (R)-2-(3,6-dichlorobenzo[b]thiophene-2-carboxamido)-3-phenylpropanoic acid] | 5.6 ± 0.32 µM |
| O=C(N[C@@H](Cc1ccccc1)C(=O)O)c1sc2cc(Cl)ccc2c1Cl [Compound 3b, (S)-2-(3,6-dichlorobenzo[b]thiophene-2-carboxamido)-3-phenylpropanoic acid] | 11.8 ± 2.5 µM |
| O=C(N[C@@H](Cc1ccccc1)C(=O)O)c1sc2cc(F)ccc2c1Cl [Compound 4b, (S)-2-(3-chloro-6-fluorobenzo[b]thiophene-2-carboxamido)-3-phenylpropanoic acid] | 21.9 ± 0.7 µM |
| O=C(N[C@H](Cc1ccccc1)C(=O)O)c1sc2cc(C(F)(F)F)ccc2c1Cl [Compound 5a, (R)-2-(3-chloro-6-(trifluoromethyl)benzo[b]thiophene-2-carboxamido)-3-phenylpropanoic acid] | 6.28 ± 1.05 µM |
| O=C(N[C@@H](Cc1ccccc1)C(=O)O)c1sc2cc(C(F)(F)F)ccc2c1Cl [Compound 5b, (S)-2-(3-chloro-6-(trifluoromethyl)benzo[b]thiophene-2-carboxamido)-3-phenylpropanoic acid] | 19.8 ± 3.6 µM |
| COc1ccc2c(Cl)c(C(=O)N[C@H](Cc3ccccc3)C(=O)O)sc2c1 [Compound 6a, (R)-2-(3-chloro-6-methoxybenzo[b]thiophene-2-carboxamido)-3-phenylpropanoic acid] | 36.7 ± 3.9 µM |
| COc1ccc2c(Cl)c(C(=O)N[C@@H](Cc3ccccc3)C(=O)O)sc2c1 [Compound 6b, (S)-2-(3-chloro-6-methoxybenzo[b]thiophene-2-carboxamido)-3-phenylpropanoic acid] | > 100 µM |
| O=C(N[C@H](Cc1ccc(O)cc1)C(=O)O)c1sc2cc(F)ccc2c1Cl [Compound 7a, (R)-2-(3-chloro-6-fluorobenzo[b]thiophene-2-carboxamido)-3-(4-hydroxyphenyl)propanoic acid] | 56.4 ± 5.2 µM |
| O=C(N[C@@H](Cc1ccc(O)cc1)C(=O)O)c1sc2cc(F)ccc2c1Cl [Compound 7b, (S)-2-(3-chloro-6-fluorobenzo[b]thiophene-2-carboxamido)-3-(4-hydroxyphenyl)propanoic acid] | 84.7 ± 2.4 µM |
| O=C(N[C@H](Cc1ccccc1)C(=O)O)c1sc2cc(F)c(F)cc2c1Cl [Compound 8a, (R)-2-(3-chloro-5,6-difluorobenzo[b]thiophene-2-carboxamido)-3-phenylpropanoic acid] | 70.7 ± 2.1 µM |
| O=C(N[C@@H](Cc1ccccc1)C(=O)O)c1sc2cc(F)c(F)cc2c1Cl [Compound 8b, (S)-2-(3-chloro-5,6-difluorobenzo[b]thiophene-2-carboxamido)-3-phenylpropanoic acid] | 79.5 ± 3.4 µM |
| O=C(N[C@H](Cc1ccc(O)cc1)C(=O)O)c1cc2ccccc2s1 [Compound 9a, (R)-2-(benzo[b]thiophene-2-carboxamido)-3-(4-hydroxyphenyl)propanoic acid] | > 100 µM |
| O=C(N[C@@H](Cc1ccc(O)cc1)C(=O)O)c1cc2ccccc2s1 [Compound 9b] | > 100 µM |
| O=C(N[C@H](Cc1ccccc1)C(=O)O)c1cc2cc(F)ccc2s1 [Compound 10a, (R)-2-(5-fluorobenzo[b]thiophene-2-carboxamido)-3-phenylpropanoic acid] | > 100 µM |
| O=C(N[C@@H](Cc1ccccc1)C(=O)O)c1cc2cc(F)ccc2s1 [Compound 10b, (S)-2-(5-fluorobenzo[b]thiophene-2-carboxamido)-3-phenylpropanoic acid] | > 100 µM |
| O=C(N[C@H](Cc1ccccc1)C(=O)O)c1sc2ccccc2c1Cl [Compound 11a, (R)-2-(3-chlorobenzo[b]thiophene-2-carboxamido)-3-phenylpropanoic acid] | > 100 µM |
| O=C(N[C@@H](Cc1ccccc1)C(=O)O)c1sc2ccccc2c1Cl [Compound 11b, (S)-2-(3-chlorobenzo[b]thiophene-2-carboxamido)-3-phenylpropanoic acid] | > 100 µM |
| O=C(N[C@H](Cc1ccccc1)C(=O)O)c1sc2ccc(F)cc2c1Cl [Compound 12a, (R)-2-(3-chloro-5-fluorobenzo[b]thiophene-2-carboxamido)-3-phenylpropanoic acid] | 47.3 ± 4.1 µM |
| O=C(N[C@@H](Cc1ccccc1)C(=O)O)c1sc2ccc(F)cc2c1Cl [Compound 12b, (S)-2-(3-chloro-5-fluorobenzo[b]thiophene-2-carboxamido)-3-phenylpropanoic acid] | 54.1 ± 5.7 µM |
| O=C(N[C@H](Cc1ccccc1)C(=O)O)c1cc2ccc(F)cc2s1 [Compound 13a, (R)-2-(6-fluorobenzo[b]thiophene-2-carboxamido)-3-phenylpropanoic acid] | > 100 µM |
| O=C(N[C@@H](Cc1ccccc1)C(=O)O)c1cc2ccc(F)cc2s1 [Compound 13b, (S)-2-(6-fluorobenzo[b]thiophene-2-carboxamido)-3-phenylpropanoic acid] | > 100 µM |

Same assay, conditions: whole cell inhibitory activity; second part of Table 1 (R5/R6 series)

| Compound | IC50 |
| --- | --- |
| O=C(O)[C@@H](Cc1ccccc1)NS(=O)(=O)c1ccccc1F [Compound 14a, (R)-2-(2-fluorophenylsulfonamido)-3-phenylpropanoic acid] | > 100 µM |
| O=C(O)[C@H](Cc1ccccc1)NS(=O)(=O)c1ccccc1F [Compound 14b, (S)-2-(2-fluorophenylsulfonamido)-3-phenylpropanoic acid] | > 100 µM |
| O=C(O)[C@@H](Cc1ccccc1)NS(=O)(=O)c1cccc(F)c1 [Compound 15a, (R)-2-(3-fluorophenylsulfonamido)-3-phenylpropanoic acid] | > 100 µM |
| O=C(O)[C@H](Cc1ccccc1)NS(=O)(=O)c1cccc(F)c1 [Compound 15b, (S)-2-(3-fluorophenylsulfonamido)-3-phenylpropanoic acid] | > 100 µM |
| O=C(O)[C@@H](Cc1ccccc1)NS(=O)(=O)c1ccc(F)cc1 [Compound 16a, (R)-2-(4-fluorophenylsulfonamido)-3-phenylpropanoic acid] | > 100 µM |
| O=C(O)[C@H](Cc1ccccc1)NS(=O)(=O)c1ccc(F)cc1 [Compound 16b, (S)-2-(4-fluorophenylsulfonamido)-3-phenylpropanoic acid] | > 100 µM |
| O=C(O)[C@@H](Cc1ccc(O)cc1)NS(=O)(=O)c1ccccc1F [Compound 17a, (R)-2-(2-fluorophenylsulfonamido)-3-(4-hydroxyphenyl)propanoic acid] | > 100 µM |
| O=C(O)[C@H](Cc1ccc(O)cc1)NS(=O)(=O)c1ccccc1F [Compound 17b, (S)-2-(2-fluorophenylsulfonamido)-3-(4-hyroxyphenyl)propanoic acid] | > 100 µM |
